We go through five compounds from patent publication US9096591B2, “Tetracyclic compounds” (Medivation Technologies, Inc., priority 2007, dated 2015).

As for `Cc1ccc2c(c1)c1c(n2CCc2nc(-c3ccccc3)cs2)CCN(C)C1` [Compound G8-c, 2,8-Dimethyl-5-[2-(4-phenylthiazol-2-yl)ethyl]-2,3,4,5-tetrahydro-1H-pyrido[4,3-b]indole], the melting point lay within 148.5 to 149 °C.

As to `CN1CCc2c(c3cc(F)ccc3n2CCc2nc(-c3ccccc3)cs2)C1` [Compound G8-f, 8-Fluoro-2-methyl-5-[2-(4-phenylthiazol-2-yl)ethyl]-2,3,4,5-tetrahydro-1H-pyrido[4,3-b]indole], the melting point fell in the range of 136.5 to 137 °C.

Regarding `CN1CCc2c(c3cc(Cl)ccc3n2CCc2n[nH]c(=S)n2C)C1` [Compound G11-b, 5-[2-(8-Chloro-2-methyl-2,3,4,5-tetrahydro-1H-pyrido[4,3-b]indol-5-yl)ethyl]-4-methyl-2,4-dihydro-1,2,4-triazole-3-thione], the melting point was 216 to 219 °C.

For `CN1CCc2c(c3cc(F)ccc3n2CCc2n[nH]c(=S)n2C)C1` [Compound G11-c, 5-[2-(8-Fluoro-2-methyl-2,3,4,5-tetrahydro-1H-pyrido[4,3-b]indol-5-yl)ethyl]-4-methyl-2,4-dihydro-1,2,4-triazole-3-thione], the melting point was 215 to 218 °C.

Compound `COc1ccc2c(c1)c1c(n2CCc2n[nH]c(=S)n2C)CCN(C)C1` [Compound G11-d, 5-[2-(8-Methoxy-2-methyl-2,3,4,5-tetrahydro-1H-pyrido[4,3-b]indol-5-yl)ethyl]-4-methyl-2,4-dihydro-1,2,4-triazole-3-thione] had a melting point of 219 to 222 °C.
